Measured values: patent US20100166660A1, “METHODS OF MODELING MIGRAINE PAIN AND IDENTIFYING CANDIDATE COMPOUNDS FOR THE TREATMENT OF MIGRAINE” (priority 2007, published 2010)

Experiments:
Format in all cases: in vivo, rat
Male Sprague Dawley rats [1] = assay: Dural stimulus-induced tactile hyperesthesia of the hindpaw (50% paw withdrawal threshold, von Frey filaments); conditions: administered to the dura; results two hours after treatment; FIG. 4
Method: Male Sprague Dawley rats were anesthetized using ketamine/xylazine (80-100 mg/kg, intraperitoneal). The top of the head was shaved using a rodent clipper (Oster Golden A5 w/size 50 blade), and the shaved area was cleaned with betadine and 70% ethanol. Animals were placed into a stereotaxic apparatus (Stoelting Co., #51600) and the body core temperatures of 37° C. were maintained using a heating pad placed below the animals. Within the shaved and cleaned area on the head, a 2 cm incision was made using a scalpel with a #10 blade, and any bleeding was cleaned using sterile cotton swabs. […]
Paw withdrawal thresholds to tactile stimuli were determined in response to probing with calibrated von Frey filaments (Stoelting Co., #58011). […] The 50% paw withdrawal threshold was determined by the non-parametric method of Dixon (Dixon, Ann. Rev. Pharmacol. Toxicol. 20:441-462, 1980; also see, e.g., Chaplan et al., J. Neurosci. Meth. 53:55-63, 1994). […] This “up-down” method was repeated until three changes in behavior were determined. […]
(§1) The 50% paw withdrawal threshold was determined as (10^[Xf+kδ])/10,000, where Xf is the value of the last von Frey filament employed, k is the Dixon value for the positive/negative pattern, and δ is the mean (log) difference between stimuli. […]

Male Sprague Dawley rats [2] = assay: Candidate compound effect on facial tactile hyperesthesia induced by dural inflammation (IM cocktail)
Method: In another set of experiments, facial response thresholds of the rats to tactile stimuli were determined. Calibrated von Frey filaments were applied perpendicularly to the midline of the forehead within a 3 mm diameter area just above the plane of the eyes, for six to eight seconds, until the filaments buckled slightly. A positive response was indicated by a sharp withdrawal of the head, which sometimes included an attempt to grasp and/or bite the filament. Special care was taken when applying the filaments to the forehead in order to prevent a positive facial response due to dynamic force and/or deflection of the hairs. The 50% facial response threshold was determined by the non-parametric method of Dixon. […] This “up-down” method was repeated until three changes in behavior were determined. The pattern of positive and negative responses was tabulated.
as §1, with “facial response” for “paw withdrawal”, “stimuli. Only naïve animals with baselines of eight grams were used in the experiment. Eight grams was used as the maximal cut-off.” for “stimuli.”

Male Sprague Dawley rats [3] = assay: Candidate compound effect on tactile hyperesthesia of the hindpaw induced by dural inflammation (IM cocktail)
Method: Paw withdrawal thresholds to tactile stimuli were determined in response to probing with calibrated von Frey filaments (Stoelting Co., #58011). The von Frey filaments were applied perpendicularly to the plantar surface of the hindpaw of the animal until it buckled slightly, and were held for three to six seconds. A positive response was indicated by a sharp withdrawal of the paw. The 50% paw withdrawal threshold was determined by the non-parametric method of Dixon (Dixon, Ann. Rev. Pharmacol. Toxicol. 20:441-462, 1980; also see, e.g., Chaplan et al., J. Neurosci. Meth. 53:55-63, 1994). […] This “up-down” method was repeated until three changes in behavior were determined. The pattern of positive and negative responses was tabulated.
The 50% paw withdrawal threshold was determined as (10^[Xf+kδ])/10,000, where Xf is the value of the last von Frey filament employed, k is the Dixon value for the positive/negative pattern, and δ is the mean (log) difference between stimuli. Only naïve animals with baselines of 11 to 15 grams were used in the experiment. Fifteen grams was used as the maximal cut-off. Five days post-migraine surgery, paw withdrawal thresholds were re-tested using the same habituation and von Frey procedure as stated above. Data were converted to percent “antiallodynia” by the following formula: percent antiallodynia=100×(test value−post-treatment baseline value)/(pretreatment baseline value−post-treatment baseline value).
After establishing baseline paw withdrawal thresholds, individual animals were removed from the testing chamber, the cap of the migraine intracranial guide tube was removed, and animals received an injection of either an IM cocktail (1 mM histamine, 1 mM serotonin, 1 mM bradykinin, and 1 mM prostaglandin E2) or vehicle (i.e., control) at 10 μl volume via the intracranial guide tube over a five- to ten-second period. The IM cocktail was made fresh on the day of each experiment. The cap of the intracranial guide tube was replaced, individual animals were placed back into their corresponding testing chamber, and paw withdrawal thresholds were measured at one-hour intervals over a six-hour time course. […] Data were converted to percent “antiallodynia” by the following formula: percent antiallodynia=100×(test value−post-treatment baseline value)/(pretreatment baseline value−post-treatment baseline value).
Rats were anesthetized with ketamine/xylazine (80-100 mg/kg, intraperitoneal) for stereotaxic placement of bilateral cannulae in the RVM. […]

rats [4] = assay: Oral administration of compounds in the migraine model of the invention (tactile allodynia)
From the text: Oral delivery was accomplished by using an 18-gauge gavage needle attached to a 1 cc syringe.

rats [5] = assay: Model for allodynia: continuous drug infusion, then paw withdrawal threshold with von Frey filaments; conditions: continuous infusion (sumatriptan: 24 hour infusion at 0.6 mg/k/day); Appendix A-5
Method: We have developed a model to determine the propensity for a compound to induce allodynia upon administration. Briefly, rats are infused continuously with a drug for a specified period of time. After the time, rats are probe with von Frey filaments to determine the paw withdrawal threshold. The compound may be administered for more than 2, 3, 4, 5, 6, 7, 8, 9, 10, 11, 12, 13, 14, 15, 16, 17, 18, 19, 20, 21, 22, 23, or 24 hours.

SMILES: N[C@@H](CCC(=O)N[C@@H](CSN=O)C(=O)NCC(=O)O)C(=O)O [SNOG, s-nitrosylglutathione]
- tactile hyperesthesia of the hindpaw (Male Sprague Dawley rats [1]): produced a tactile hyperesthesia effect similar to that induced by administration of the IM cocktail

SMILES: CCCCN1CCCCC1C(=O)Nc1c(C)cccc1C (centres unmarked) [bupivacaine]
- facial response threshold versus rats with dural IM cocktail but no compound (Male Sprague Dawley rats [2]; administration in the RVM thirty minutes after IM cocktail, FIGS. 7A-7B): increase in facial response threshold
- paw withdrawal threshold versus rats with dural IM cocktail but no compound (Male Sprague Dawley rats [3]; administration in the RVM thirty minutes after IM cocktail, FIG. 9A): increase in paw withdrawal threshold
- paw withdrawal threshold versus rats with dural IM cocktail but no compound (Male Sprague Dawley rats [3]; administration in the RVM two hours after IM cocktail, FIG. 9B): significant increase in test animal paw withdrawal threshold

SMILES: CN1CC=C(c2c[nH]c3ccc(NC(=N)c4cccs4)cc23)CC1 [cpd 1]
- attenuation of tactile allodynia in the migraine model (rats [4]; after oral administration, Appendix A-4): attenuated tactile allodynia
- oral activity in the migraine model (rats [4]; oral, Appendix A-3): orally active
- induction of tactile allodynia after continuous infusion (rats [5]): do not induce tactile allodynia

SMILES: CNS(=O)(=O)Cc1ccc2[nH]cc(CCN(C)C)c2c1 [sumatriptan]
- facial response threshold versus rats with dural IM cocktail but no compound (Male Sprague Dawley rats [2]; systemic administration thirty minutes after IM cocktail, FIGS. 6A-6B): increase in facial response threshold
- paw withdrawal threshold versus rats with dural IM cocktail but no compound (Male Sprague Dawley rats [3]; 0.6 mg/kg s.c. ten minutes prior to IM cocktail, FIG. 8): increase in paw withdrawal threshold
- development of tactile hyperesthesia (paw withdrawal thresholds) (Male Sprague Dawley rats [3]; sumatriptan succinate 1 mg/kg s.c. five minutes prior to dural IM cocktail, two hours after dural treatment, FIG. 10): prevent or ameliorate the development of tactile hyperesthesia
- induction of tactile allodynia after continuous infusion (rats [5]): induces tactile allodynia
